How the values were obtained:
PAR2 [1] = target: T1, PAR2 (Homo sapiens (Human), UniProt P55085); assay: IP-One HTRF assay for PAR2 antagonist activity (IP1 production); type: cell-based
Procedure: Protocol for Testing Compounds for PAR2 Antagonist Activity Using an IP-One HTRF Assay
Inositol monophosphate (IP1) production were measured in 1321N1 cells stably expressing human PAR2 using an IP-One HTRF assay kit (Cisbio). […] After 60 min at 37° C. cells were lysed and IP1 concentrations were detected according to the manufacturers protocol (Cisbio). Data were normalized to IP1 concentrations using a IP1 standard curve according to the manufacturers protocol (Cisbio).

PAR2 [2] = target: T1, PAR2; assay: Trypsin activated FLPR Ca2+ mobilization assay for PAR2 antagonist activity; type: cell-based
Procedure: Trypin Activated FLPR Assay:
Protocol for Testing Compounds for PAR2 Antagonist Activity Using a Ca2+ Mobilization Assay
Calcium mobilization was measured using 1321N1 cells stably expressing human PAR2. Cells were seeded in 384-well plates at 4,000 cells per well in 20 μl DMEM with Glutamax supplemented with 10% FBS and incubated for 18-24 h at 37° C., 5% CO2 and 95% humidity. […] The addition was done using a FLIPR^TETRA (384-well head, Molecular Devices) and the response was read simultaneously to detect any agonist activity.

[3] = 1321N1 cells stably expressing human PAR2, agonist SLIGRL-NH2, read-out: hPAR2 IPpone IC50
[4] = 1321N1 cells stably expressing human PAR2, agonist Trypsin, Vorapaxar present to block PAR1, read-out: hPAR2 FLPR (Trypsin) IC50
[5] = hPAR2 IPpone IC50 (μM), 1321N1 cells stably expressing human PAR2, agonist SLIGRL-NH2
[6] = hPAR2 FLPR (Trypsin) IC50 (μM), 1321N1 cells stably expressing human PAR2, agonist Trypsin, Vorapaxar present to block PAR1

T1 sequence (P55085 26-397): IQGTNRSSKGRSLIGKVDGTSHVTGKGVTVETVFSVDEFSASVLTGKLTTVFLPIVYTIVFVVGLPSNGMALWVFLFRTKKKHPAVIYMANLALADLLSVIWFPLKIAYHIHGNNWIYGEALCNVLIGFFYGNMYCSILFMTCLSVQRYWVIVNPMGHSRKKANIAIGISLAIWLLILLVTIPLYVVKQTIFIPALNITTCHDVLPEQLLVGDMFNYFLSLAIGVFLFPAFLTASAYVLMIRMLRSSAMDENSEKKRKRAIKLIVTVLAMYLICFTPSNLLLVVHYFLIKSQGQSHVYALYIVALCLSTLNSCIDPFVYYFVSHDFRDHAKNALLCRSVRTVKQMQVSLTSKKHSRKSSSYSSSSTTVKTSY

SMILES | IC50 (PAR2 [1]; [3]) [µM] | IC50 (PAR2 [2]; [4]) [µM] | also measured
CCCc1c(C(O)c2ncc[nH]2)ccc(F)c1F (single isomer, unassigned) [Example 11, (3,4-Difluoro-2-propylphenyl)(1H-imidazol-2-yl)methanol] | > 41 | > 77 | 
CCCc1c(C(O)c2ncc[nH]2)ccc(F)c1F (single isomer, unassigned) [Example 12, (3,4-Difluoro-2-propylphenyl)(1H-imidazol-2-yl)methanol] | 4 | 4.9 | 
OC(c1ncc[nH]1)c1ccc(F)cc1N1CCCC1 (single isomer, unassigned) [Example 15, (4-Fluoro-2-(pyrrolidin-1-yl)phenyl)(1H-imidazol-2-yl)methanol] |  |  | IC50 (PAR2 [1]; hPAR2 IPpone IC50 (μM)): > 100 µM; IC50 (PAR2 [2]; hPAR2 FLPR (Trypsin) IC50 (μM)): > 41 µM
OC(c1ncc[nH]1)c1ccc(F)cc1N1CC=CC1 (single isomer, unassigned) [Example 18, (2-(2,5-dihydro-1H-pyrrol-1-yl)-4-fluorophenyl)(1H-imidazol-2-yl)methanol] | 0.9 | 4.28 | 
OC(c1ncc[nH]1)c1ccc(F)cc1N1CC=CC1 (single isomer, unassigned) [Example 19, (2-(2,5-dihydro-1H-pyrrol-1-yl)-4-fluorophenyl) (1H-imidazol-2-yl)methanol] | 93 | > 100 | 
CCc1coc2c(F)ccc([C@@H](O)c3ncc[nH]3)c12 (single isomer, unassigned) [Example 41] |  |  | IC50 (PAR2 [1]; [5]): 26 µM; IC50 (PAR2 [2]; [6]): 2.19 µM
OC(c1ncc[nH]1)c1ccc(F)c2occ(C3CC3)c12 (single isomer, unassigned) [Example 44, (3-Cyclopropyl-7-fluorobenzofuran-4-yl)(1H-imidazol-2-yl)methanol] | 6.54 | > 41 | 
OC(c1ncc[nH]1)c1ccc(F)c2occ(C3CC3)c12 (single isomer, unassigned) [Example 45, (3-Cyclopropyl-7-fluorobenzofuran-4-yl)(1H-imidazol-2-yl)methanol] | 0.63 | 6.07 | 
Cn1ccc2c(F)ccc(C(O)c3ncc[nH]3)c21 (single isomer, unassigned) [Example 56, (4-Fluoro-1-methyl-1H-indol-7-yl)(1H-imidazol-2-yl)methanol] | > 100 | > 41.6 | 
CCCc1cc(F)ccc1C(O)c1ncc[nH]1 (stereo not drawn) [Example 1, (4-Fluoro-2-propylphenyl)(1H-imidazol-2-yl)methanol] |  |  | IC50 (PAR2 [1]; hPAR2 IPpone IC50 (μM)): 2.93 µM
CCCc1cc(F)ccc1[C@@H](O)c1ncc[nH]1 [Example 2, (R)-(4-fluoro-2-propylphenyl)(1H-imidazol-2-yl)methanol] | > 100 | > 41 | 
OC(c1ncc[nH]1)c1ccccc1C1=CCCC1 (stereo not drawn) [Example 4, (2-Cyclopentenylphenyl)(1H-imidazol-2-yl)methanol] | 6.27 | 16.6 | 
OC(c1ncc[nH]1)c1ccc(F)cc1C1=CCCC1 (stereo not drawn) [Example 5, (2-Cyclopentenyl-4-fluorophenyl)(1H-imidazol-2-yl)methanol] | 5.18 | 13.7 | 
OC(c1ncc[nH]1)c1ccc(F)cc1C1CCCC1 (stereo not drawn) [Example 6, (2-Cyclopentyl-4-fluorophenyl)(1H-imidazol-2-yl)methanol] | 5 | 9.57 | 
OC(c1ncc[nH]1)c1ccc(F)cc1C1CCC1 (stereo not drawn) [Example 7, (2-Cyclobutyl-4-fluorophenyl)(1H-imidazol-2-yl)methanol] | 11.5 | 7.85 | 
C/C=C/c1cc(F)ccc1C(O)c1ncc[nH]1 (stereo not drawn) [Example 8, (E)-(4-Fluoro-2-(prop-1-enyl)phenyl)(1H-imidazol-2-yl)methanol] | 5.64 | 5.1 | 
C/C=C\c1cc(F)ccc1C(O)c1ncc[nH]1 (stereo not drawn) [Example 9, (Z)-(4-Fluoro-2-(prop-1-enyl)phenyl)(1H-imidazol-2-yl)methanol] | 9.66 | 6.26 | 
CCCc1c(C(O)c2ncc[nH]2)ccc(F)c1F (stereo not drawn) [Example 10, (3,4-Difluoro-2-propylphenyl)(1H-imidazol-2-yl)methanol] | 1.66 | 5.9 | 
CCCc1c(Cl)cccc1C(O)c1ncc[nH]1 (stereo not drawn) [Example 13, (3-Chloro-2-propylphenyl)(1H-imidazol-2-yl)methanol] |  |  | IC50 (PAR2 [1]; [5]): 5.45 µM; IC50 (PAR2 [2]; [6]): 12.4 µM
OC(c1ncc[nH]1)c1ccc(F)cc1N1CCCC1 (stereo not drawn) [Example 14, (4-Fluoro-2-(pyrrolidin-1-yl)phenyl)(1H-imidazol-2-yl)methanol] |  |  | IC50 (PAR2 [1]; hPAR2 IPpone IC50 (μM)): 1.52 µM; IC50 (PAR2 [2]; hPAR2 FLPR (Trypsin) IC50 (μM)): 16.9 µM
OC(c1ncc[nH]1)c1ccc(F)cc1N1CC=CC1 (stereo not drawn) [Example 17, (2-(2,5-dihydro-1H-pyrrol-1-yl)-4-fluorophenyl)(1H-imidazol-2-yl)methanol] | 1.05 | 8.75 | 

SMILES | IC50 (PAR2 [1]; [3]) [µM] | IC50 (PAR2 [2]; [4]) [µM] | also measured
OC(c1ncc[nH]1)c1ccc(F)cc1N1CCC1 (stereo not drawn) [Example 20, (2-(Azetidin-1-yl)-4-fluorophenyl)(1H-imidazol-2-yl)methanol] | 4.5 | 18.6 | 
OC(c1ncc[nH]1)c1cccc(Cl)c1-n1cccn1 (stereo not drawn) [Example 21, (3-Chloro-2-(1H-pyrazol-1-yl)phenyl) (1H-imidazol-2-yl)methanol] | 6.4 | 40.3 | 
OC(c1ncc[nH]1)c1ccc(F)c(F)c1-n1cccn1 (stereo not drawn) [Example 22, (3,4-Difluoro-2-(1H-pyrazol-1-yl)phenyl)(1H-imidazol-2-yl)methanol] | 4.6 | 20 | 
OC(c1ncc[nH]1)c1ccc(F)cc1-n1cccn1 (stereo not drawn) [Example 23, (4-Fluoro-2-(1H-pyrazol-1-yl)phenyl)(1H-imidazol-2-yl)methanol] | 7.21 | 25.4 | 
CC1(F)CN(c2cc(F)ccc2C(O)c2ncc[nH]2)C1 (stereo not drawn) [Example 24, (4-Fluoro-2-(3-fluoro-3-methylazetidin-1-yl)phenyl)(1H-imidazol-2-yl)methanol] | 6.73 | 16.3 | 
CC1CN(c2cc(F)ccc2C(O)c2ncc[nH]2)C1 (stereo not drawn) [Example 25, (4-Fluoro-2-(3-methylazetidin-1-yl)phenyl)(1H-imidazol-2-yl)methanol] | 6.88 | 22 | 
OC(c1ncc[nH]1)c1ccc(F)cc1N1CC[C@H](F)C1 (stereo partly drawn) [Example 26, (4-Fluoro-2-((S)-3-fluoropyrrolidin-1-yl)phenyl)(1H-imidazol-2-yl)methanol] | 3.87 |  | 
OC(c1ncc[nH]1)c1ccc(F)cc1N1CC[C@@H](F)C1 (stereo partly drawn) [Example 27, (4-Fluoro-2-((R)-3-fluoropyrrolidin-1-yl)phenyl)(1H-imidazol-2-yl)methanol] | 6.96 | > 41.6 | 
OC(c1ncc[nH]1)c1ccc(F)cc1N1CCC(F)(F)C1 (stereo not drawn) [Example 28, (2-(3,3-Difluoropyrrolidin-1-yl)-4-fluorophenyl)(1H-imidazol-2-yl)methanol] | 4.91 | 30.3 | 
C[C@@H]1CCN(c2cc(F)ccc2C(O)c2ncc[nH]2)C1 (stereo partly drawn) [Example 29, (4-Fluoro-2-((R)-3-methylpyrrolidin-1-yl)phenyl)(1H-imidazol-2-yl)methanol] | 13.1 | > 41.6 | 
OC(c1ncc[nH]1)c1ccc(F)cc1N1CC2CC2C1 (stereo not drawn) [Example 30, (2-(3-Azabicyclo[3.1.0]hexan-3-yl)-4-fluorophenyl)(1H-imidazol-2-yl)methanol] |  |  | IC50 (PAR2 [1]; [5]): 4.67 µM; IC50 (PAR2 [2]; [6]): 11.6 µM
OC(c1ncc[nH]1)c1ccc(F)cc1C12CCCC1C2 (stereo not drawn) [Example 31, (2-(Bicyclo[3.1.0]hexan-1-yl)-4-fluorophenyl)(1H-imidazol-2-yl)methanol] | 4.32 | > 41 | 
OC(c1ncc[nH]1)c1ccc(F)cc1-c1cocn1 (stereo not drawn) [Example 32, (4-Fluoro-2-(oxazol-4-yl)phenyl)(1H-imidazol-2-yl)methanol] | 14.3 | 30.6 | 
OC(c1ncc[nH]1)c1ccc(F)cc1-c1cscn1 (stereo not drawn) [Example 33, (4-Fluoro-2-(thiazol-4-yl)phenyl)(1H-imidazol-2-yl)methanol] |  |  | IC50 (PAR2 [1]; hPAR2 IPpone IC50 (μM)): 3.6 µM; IC50 (PAR2 [2]; hPAR2 FLPR (Trypsin) IC50 (μM)): 16.8 µM
Cc1ccc2c(F)ccc(C(O)c3ncc[nH]3)n12 (stereo not drawn) [Example 37, (8-Fluoro-3-methylindolizin-5-yl)(1H-imidazol-2-yl)methanol] | 0.97 | 3.27 | 
OC(c1ncc[nH]1)c1ccc(F)c2ccc(C3CC3)n12 (stereo not drawn) [Example 39, (3-Cyclopropyl-8-fluoroindolizin-5-yl)(1H-imidazol-2-yl)methanol] |  |  | IC50 (PAR2 [1]; [5]): 13.2 µM
Cn1ccc2c(F)ccc(C(O)c3ncc[nH]3)c21 (stereo not drawn) [Example 54, (4-Fluoro-1-methyl-1H-indol-7-yl)(1H-imidazol-2-yl)methanol] |  | 6.15 | 
OC(c1ncc[nH]1)c1cccc2cc3n(c12)CCC3 (stereo not drawn) [Example 58, (2,3-Dihydro-1H-pyrrolo[1,2-a]indol-5-yl)(1H-imidazol-2-yl)methanol] |  | > 41.6 | 
Cn1ncc2c(F)ccc(C(O)c3ncc[nH]3)c21 (stereo not drawn) [Example 62, (4-Fluoro-1-methyl-1H-indazol-7-yl)(1H-imidazol-2-yl)methanol] | 3.38 |  | 
CCc1coc2c(F)ccc(C(O)c3ncn[nH]3)c12 (stereo not drawn) [Example 63, (3-Ethyl-7-fluorobenzofuran-4-yl)(1H-1,2,4-triazol-5-yl)methanol] |  | 15.6 | 
